{"source": "patent US10245256B2", "about": "“Nitroxides for use in treating or preventing diabetes and obesity” (Mitos Pharmaceuticals, Inc., priority 2005, dated 2019)", "key": {"[1]": {"tested_on": "keratinocyte growth factor", "test": "Protein level of keratinocyte growth factor in pancreatic ductal cells of patient after Tempol treatment", "format": "in vivo, human", "settings": "1500 mg per day for 180 days", "description": "(§1) A 70-kilogram diabetic patient is administered a dose of 1500 mg of Tempol per day for 180 days. This may be administered in a single dose, or may be administered as a number of smaller doses over a 24-hour period: for example, three 500-mg doses at eight-hour intervals. Following treatment, the protein level of keratinocyte growth factor in the pancreatic ductal cells, and the serum level of adiponectin, is increased.\nas §1, with “70-kilogram” for “70-kilogram diabetic”, “patient at risk for but not yet diagnosed with diabetes” for “patient”"}, "[2]": {"tested_on": "Keratinocyte Growth Factor (Fibroblast Growth Factor 7)", "test": "Gene expression in cardiac tissue of mice fed Tempol, chip-based microarray", "format": "in vivo", "settings": "5 mg/g of food from 14 to 31 months", "description": "To assess the effects of Tempol on gene expression, Tempol was administered to experimental mice at a dose of 5 mg/g of food from 14 months to 31 months after birth. Mice receiving the same food without the addition of Tempol were used as a negative control. At the age of 31 months, the experimental animals were sacrificed and the hearts were surgically removed. The expression of a broad spectrum of genes in the cardiac tissue was assessed using chip-based microarray technology. Such chips are well known in the art and are widely used to assess gene expression."}, "[3]": {"tested_on": "Adiponectin, C1Q and collagen domain containing (ADIPOQ)", "test": "Gene expression in adipose tissue of mice fed Tempol, Affymetrix MOE430A 2.0 array", "format": "in vivo", "settings": "5 g/kg of diet from 12 through 15 months", "description": "In a further gene expression study, Tempol was administered to experimental mice at a dose of 5 g/kg of diet from 12 months through 15 months. Mice receiving the same diet without the addition of Tempol were used as a negative control. At the age of 15 months, the adipose tissue of the experimental animals was obtained. The expression of a broad spectrum of genes in the adipose tissue was assessed using chip-based microarray technology. Specifically, in this case an Affymetrix MOE430A 2.0 array, containing 12,960 genes, was employed. Such chips are well known in the art and are widely used to assess gene expression."}, "adiponectin": {"tested_on": "adiponectin", "test": "Serum level of adiponectin of patient after Tempol treatment", "format": "in vivo, human", "settings": "1500 mg per day for 180 days", "description": "as §1\nas §1, with “70-kilogram” for “70-kilogram diabetic”, “patient at risk for but not yet diagnosed with diabetes” for “patient”"}, "[4]": {"settings": "70-kilogram patient at risk for but not yet diagnosed with diabetes"}}, "data": [{"molecule": "CC1(C)CC(O)CC(C)(C)N1[O]", "note": "[Tempol, 4-hydroxy-2,2,6,6-tetramethylpiperidine-1-oxyl]", "values": [{"measurement": "protein level of keratinocyte growth factor in the pancreatic ductal cells", "setting": "[1]; 70-kilogram diabetic patient", "result": "increased"}, {"measurement": "protein level of keratinocyte growth factor in the pancreatic ductal cells", "setting": "[1]; [4]", "result": "increased"}, {"measurement": "KGF expression, TEMPOL-treated mouse tp51", "setting": "[2]; microarray signal, individual animal tp51", "result": 13}, {"measurement": "KGF expression, TEMPOL-treated mouse tp52", "setting": "[2]; microarray signal, individual animal tp52", "result": 52}, {"measurement": "KGF expression, TEMPOL-treated mouse tp53", "setting": "[2]; microarray signal, individual animal tp53", "result": 96}, {"measurement": "Fold change of KGF expression", "setting": "[2]; TEMPOL-treated vs control mice", "result": 2.1, "unit": "fold"}, {"measurement": "Mean adiponectin expression (Tempol-treated mice)", "setting": "[3]; microarray signal, control mean 27698", "result": 33876}, {"measurement": "Fold change of adiponectin expression", "setting": "[3]; Tempol-treated vs control mice, P value 0.003", "result": "increase in expression"}, {"measurement": "serum level of adiponectin", "setting": "adiponectin; 70-kilogram diabetic patient", "result": "increased"}, {"measurement": "serum level of adiponectin", "setting": "adiponectin; [4]", "result": "increased"}]}]}
